Test results: ChEMBL document CHEMBL1201862, “PubChem BioAssay data set” (2004)
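Step 1: Grow cells in 96-well plates. Step 2: Expose to compound for 48 hours at 5 concentrations. Step 3: Interpolate endpoints linearly; if unreached, use highest concentration. Here, GI50 denotes the concentration required for 50% inhibition of growth.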 Calls of active or inactive are those of the source. No stated cut-off is given here; in the data, active = GI50 up to about 1.1 µM and inactive = higher.

What was measured:
Experiment in all cases: NCI tumour cell line growth inhibition, 48 h
HT-29 = tested on: HT-29
UACC-62 = tested on: UACC-62
K562 = tested on: K562
HOP-62 = tested on: HOP-62
NCI-H460 = tested on: NCI-H460
NCI-H23 = tested on: NCI-H23
SR = tested on: SR
SF-268 = tested on: SF-268
SK-MEL-2 = tested on: SK-MEL-2
NCI-H522 = tested on: NCI-H522
HCT-116 = tested on: HCT-116
UACC-257 = tested on: UACC-257
786-0 = tested on: 786-0
IGROV-1 = tested on: IGROV-1
UO-31 = tested on: UO-31
EKVX = tested on: EKVX
Hs-578T = tested on: Hs-578T
PC-3 = tested on: PC-3
OVCAR-3 = tested on: OVCAR-3

Measured: GI50

CCOC(=O)CCN1C(=O)C(=O)N(c2ccc(OC)cc2)C1=S
inactive: HT-29 > 100 µM | UACC-62 16 µM | K562 54.6 µM | HOP-62 > 100 µM | NCI-H460 53.5 µM | NCI-H23 > 100 µM | SR > 100 µM | SF-268 > 100 µM | SK-MEL-2 > 100 µM | NCI-H522 14.8 µM | HCT-116 > 100 µM | UACC-257 > 100 µM | 786-0 > 100 µM | IGROV-1 > 100 µM | UO-31 56.5 µM | EKVX > 100 µM | Hs-578T 47.1 µM | PC-3 > 100 µM

COc1cc(C2C(Cl)C(=O)N2n2cnc3ccccc3c2=O)cc(OC)c1OC (stereo not drawn)
inactive: HT-29 > 100 µM | UACC-62 37.9 µM | K562 20.3 µM | HOP-62 > 100 µM | NCI-H460 > 100 µM | NCI-H23 > 100 µM | SR 31.2 µM | SF-268 > 100 µM | OVCAR-3 > 100 µM | SK-MEL-2 > 100 µM | NCI-H522 > 100 µM | HCT-116 > 100 µM | UACC-257 55.8 µM | 786-0 > 100 µM | IGROV-1 > 100 µM | UO-31 > 100 µM | EKVX 92 µM

O=S1(=O)OCCOS(=O)(=O)C1Br
inactive: HT-29 > 100 µM | UACC-62 52.2 µM | K562 > 100 µM | HOP-62 > 100 µM | NCI-H23 > 100 µM | SR > 100 µM | SF-268 > 100 µM | OVCAR-3 > 100 µM | SK-MEL-2 > 100 µM | NCI-H522 > 100 µM | HCT-116 > 100 µM | UACC-257 > 100 µM | 786-0 > 100 µM | IGROV-1 > 100 µM | UO-31 39.1 µM

CCCCCCCC(=O)OC[C@H](C[As](=O)(O)O)OC(=O)CCCCCCC
inactive: HT-29 12.2 µM | UACC-62 9.29 µM | K562 12.7 µM | HOP-62 18.7 µM | NCI-H23 14.3 µM | SR 3.05 µM | SF-268 1.82 µM | NCI-H522 1.42 µM | HCT-116 5.24 µM | UACC-257 12.8 µM | 786-0 13.4 µM | IGROV-1 3.57 µM | UO-31 2.27 µM | EKVX 21.1 µM

COC(=O)CCC(=O)Nc1ccc(Cl)cc1C
inactive: HT-29 > 100 µM | UACC-62 14.3 µM | K562 20.8 µM | HOP-62 39.4 µM | NCI-H460 > 100 µM | NCI-H23 > 71 µM | SR 5.47 µM | OVCAR-3 43.9 µM | SK-MEL-2 > 47.8 µM | NCI-H522 3.41 µM | HCT-116 > 100 µM | UACC-257 > 67.1 µM | 786-0 > 50.8 µM | IGROV-1 > 64 µM | EKVX > 55.2 µM

CN1C(=O)CCC1(O)C1C=CC=CC1 (stereo not drawn)
inactive: HT-29 > 100 µM | UACC-62 > 100 µM | K562 > 100 µM | HOP-62 > 100 µM | NCI-H460 > 100 µM | NCI-H23 > 100 µM | SR > 100 µM | SF-268 > 100 µM | OVCAR-3 > 100 µM | NCI-H522 > 100 µM | HCT-116 > 100 µM | UACC-257 > 100 µM | 786-0 > 100 µM | IGROV-1 > 100 µM | UO-31 > 100 µM

CC1(C)C=C(/C=N/Nc2ccccc2)C(C#N)=C(O)C1(C#N)C#N
inactive: HT-29 93.8 µM | UACC-62 > 100 µM | K562 56.5 µM | HOP-62 > 100 µM | NCI-H460 92.7 µM | NCI-H23 > 100 µM | SR 31.3 µM | SF-268 > 100 µM | OVCAR-3 > 100 µM | NCI-H522 > 100 µM | HCT-116 > 100 µM | UACC-257 > 100 µM | 786-0 > 100 µM | IGROV-1 > 100 µM | UO-31 > 100 µM | EKVX > 100 µM | Hs-578T > 100 µM | PC-3 36.7 µM

COc1ccc2cc(C(=O)Nc3ccc(O)c(C(=O)O)c3)ccc2c1OC
inactive: HT-29 > 100 µM | UACC-62 > 100 µM | K562 > 100 µM | HOP-62 > 100 µM | NCI-H460 > 100 µM | NCI-H23 > 100 µM | SR > 100 µM | SF-268 > 100 µM | OVCAR-3 > 100 µM | SK-MEL-2 > 100 µM | NCI-H522 49.4 µM | HCT-116 > 100 µM | UACC-257 > 100 µM | 786-0 > 100 µM | IGROV-1 > 100 µM | UO-31 > 100 µM | EKVX > 100 µM | PC-3 > 100 µM

Nc1c(Cl)ncnc1NCCCNc1ncnc(Cl)c1N
inactive: HT-29 > 100 µM | UACC-62 > 100 µM | K562 > 100 µM | HOP-62 > 100 µM | NCI-H460 > 100 µM | NCI-H23 53.8 µM | SR > 100 µM | SF-268 > 100 µM | OVCAR-3 > 100 µM | SK-MEL-2 > 100 µM | NCI-H522 69.3 µM | HCT-116 > 100 µM | UACC-257 67 µM | 786-0 > 100 µM | IGROV-1 > 100 µM | UO-31 95.3 µM | EKVX > 100 µM

COc1cc(O)c2c(=O)c(O)c(-c3ccc(O)c(O)c3)oc2c1 [RHAMNETIN]
inactive: HT-29 15.9 µM | UACC-62 7.91 µM | K562 9.53 µM | HOP-62 14.6 µM | NCI-H460 4.25 µM | SR 13.3 µM | SF-268 7.26 µM | OVCAR-3 3.9 µM | NCI-H522 3.15 µM | HCT-116 14.6 µM | UACC-257 13 µM | IGROV-1 40.3 µM | UO-31 6.05 µM | EKVX 10.2 µM | PC-3 19.7 µM

Cc1ccc(S(=O)(=O)OC2CSSCC2OS(=O)(=O)c2ccc(C)cc2)cc1 (stereo not drawn)
inactive: HT-29 9.68 µM | UACC-62 7.89 µM | K562 14.9 µM | HOP-62 20.3 µM | NCI-H460 17.7 µM | NCI-H23 17.9 µM | SR 7.69 µM | SF-268 14.7 µM | OVCAR-3 13.3 µM | SK-MEL-2 15.7 µM | NCI-H522 10.9 µM | HCT-116 13.3 µM | UACC-257 10.2 µM | 786-0 12.6 µM | IGROV-1 16.8 µM | UO-31 15.2 µM | EKVX 29.8 µM

Cc1ccc(NC(=O)CC2Sc3ccccc3NC2=O)cc1C (stereo not drawn)
inactive: HT-29 67.1 µM | UACC-62 75.3 µM | K562 28.2 µM | HOP-62 > 100 µM | NCI-H460 58.6 µM | NCI-H23 > 100 µM | SR > 100 µM | SF-268 60 µM | OVCAR-3 70.8 µM | SK-MEL-2 > 100 µM | NCI-H522 > 100 µM | HCT-116 41.6 µM | UACC-257 > 100 µM | IGROV-1 > 100 µM | UO-31 73.6 µM | EKVX > 100 µM

Cc1ccc(S(=O)(=O)NCCCSCCO)cc1
inactive: HT-29 33.6 µM | K562 38.4 µM | NCI-H460 43.9 µM | NCI-H23 25.6 µM | SR > 100 µM | SF-268 10 µM | OVCAR-3 31.6 µM | NCI-H522 > 100 µM | HCT-116 27.2 µM | UACC-257 44.1 µM | UO-31 > 100 µM | Hs-578T 30.5 µM | PC-3 30 µM

CN(C(=O)C1=CCC2(CC1)OCCO2)c1ccccc1I
inactive: HT-29 > 100 µM | UACC-62 > 100 µM | K562 > 100 µM | HOP-62 > 100 µM | NCI-H460 > 100 µM | NCI-H23 > 100 µM | SR > 100 µM | OVCAR-3 > 100 µM | SK-MEL-2 > 100 µM | NCI-H522 > 100 µM | HCT-116 > 100 µM | UACC-257 > 100 µM | 786-0 > 100 µM | IGROV-1 > 100 µM | UO-31 > 100 µM | EKVX > 100 µM | PC-3 > 100 µM

CC(=O)Nc1ccc(-c2nnc(SCC(=O)Nc3cccc([N+](=O)[O-])c3)o2)cc1
inactive: HT-29 16.1 µM | UACC-62 11.5 µM | K562 10.3 µM | HOP-62 22.9 µM | NCI-H460 14.5 µM | NCI-H23 5.13 µM | SR 2.87 µM | SF-268 16.1 µM | OVCAR-3 13.5 µM | SK-MEL-2 18.3 µM | NCI-H522 10.1 µM | HCT-116 14 µM | UACC-257 17.3 µM | 786-0 17.6 µM | IGROV-1 4.11 µM | UO-31 13.2 µM

CC(OC1CC(=O)CC2C(=O)C=CC(=O)C12)c1ccccc1 (stereo not drawn)
inactive: HT-29 17.7 µM | UACC-62 16.2 µM | K562 3.31 µM | HOP-62 24 µM | NCI-H460 > 42.9 µM | NCI-H23 18.1 µM | SR 19.1 µM | SF-268 21.2 µM | OVCAR-3 19.2 µM | SK-MEL-2 19.7 µM | NCI-H522 1.53 µM | HCT-116 9.75 µM | UACC-257 19.1 µM | 786-0 13.9 µM | IGROV-1 17.4 µM | UO-31 16 µM | EKVX 16.2 µM

N=C(N)SCCc1cn2ccccc2n1
inactive: HT-29 > 100 µM | K562 > 100 µM | HOP-62 > 100 µM | NCI-H460 > 100 µM | NCI-H23 > 100 µM | SR > 100 µM | SF-268 > 100 µM | OVCAR-3 > 100 µM | SK-MEL-2 > 100 µM | NCI-H522 > 100 µM | HCT-116 > 100 µM | UACC-257 > 100 µM | 786-0 > 100 µM | UO-31 > 100 µM | EKVX > 100 µM
